Series [1] concerns the target T1, CYP2J2 (Homo sapiens, UniProt P51589).
T1 construct: His-tag; made in house; host or cells: E. coli DH-5α with pTGro7 plasmid
T1 sequence (P51589 1-502): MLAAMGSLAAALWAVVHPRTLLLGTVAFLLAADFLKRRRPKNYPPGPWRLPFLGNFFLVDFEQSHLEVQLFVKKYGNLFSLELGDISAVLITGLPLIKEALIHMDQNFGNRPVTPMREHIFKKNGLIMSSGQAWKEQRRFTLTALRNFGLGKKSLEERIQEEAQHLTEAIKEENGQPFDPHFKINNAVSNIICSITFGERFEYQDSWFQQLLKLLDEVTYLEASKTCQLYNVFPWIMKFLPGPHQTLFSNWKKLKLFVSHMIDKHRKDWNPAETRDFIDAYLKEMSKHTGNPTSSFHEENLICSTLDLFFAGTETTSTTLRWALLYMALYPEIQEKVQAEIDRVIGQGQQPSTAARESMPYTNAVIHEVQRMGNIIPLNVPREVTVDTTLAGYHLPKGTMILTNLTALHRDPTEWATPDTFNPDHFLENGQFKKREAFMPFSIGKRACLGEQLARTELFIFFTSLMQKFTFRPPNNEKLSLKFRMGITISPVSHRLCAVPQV
As to the kind of experiment: CBC metabolism by CYP2J2. The format is in vitro ADME. The protocol: (§1) To study the kinetics of CBC metabolism, concentration dependent metabolism of CBC was carried out in the presence of various CYPs using the following procedure. CYP2J2, CYP2C8, CYP2D6, CYP2C9, and CYP3A4 (final concentration 0.5 μM) were initially dissolved in lipid containing POPC:POPS (8:2 v/v) followed by addition of CPR (final concentration 0.6 μM) in 0.1 M potassium phosphate buffer (pH 7.4). CBC (5–80 μM) was added and incubated at 37 °C for 10 min. The reaction was triggered by NADPH and extracted using the exact sample protocol as mentioned in the HLM section.
(§2) Samples were analyzed with the 5500 QTRAP LC/MS/MS system (Sciex, Framingham, MA) in the Metabolomics Lab of Roy J. Carver Biotechnology Center, University of Illinois at Urbana–Champaign. Software Analyst 1.7.1 was used for data acquisition and analysis. The 1200 series HPLC system (Agilent Technologies, Santa Clara, CA) includes a degasser, an autosampler, and a binary pump. […] Multiple reaction monitoring (MRM) was used for quantitation: CBC m/z 315.1 → m/z 135.0; 1-acetoxy-6′,7′-dihydroxy-CBC (JM-I-73) m/z 349.1→ m/z 193.0; 1″-hydroxy-CBC (JM-I-66) m/z 331.1→ m/z 275.1; 6′,7′-epoxy-CBC (JM-I-27) m/z 331.1→ m/z 193.0; 7′,10′-ene-6′-hydroxy-CBC (JM-I-30) m/z 331.1→ m/z 193.0; 8′-hydroxy-CBC (JM-I-32) […]→ m/z 77.0. Internal standard EET-EA-d11 was monitored at m/z 375.2→ m/z 357.1.

Series [2] deals with T2, CYP2C8 (Homo sapiens, UniProt P10632).
T2 construct: His-tag; made in house; host or cells: E. coli DH-5α with pTGro7 plasmid
T2 sequence (P10632 1-490): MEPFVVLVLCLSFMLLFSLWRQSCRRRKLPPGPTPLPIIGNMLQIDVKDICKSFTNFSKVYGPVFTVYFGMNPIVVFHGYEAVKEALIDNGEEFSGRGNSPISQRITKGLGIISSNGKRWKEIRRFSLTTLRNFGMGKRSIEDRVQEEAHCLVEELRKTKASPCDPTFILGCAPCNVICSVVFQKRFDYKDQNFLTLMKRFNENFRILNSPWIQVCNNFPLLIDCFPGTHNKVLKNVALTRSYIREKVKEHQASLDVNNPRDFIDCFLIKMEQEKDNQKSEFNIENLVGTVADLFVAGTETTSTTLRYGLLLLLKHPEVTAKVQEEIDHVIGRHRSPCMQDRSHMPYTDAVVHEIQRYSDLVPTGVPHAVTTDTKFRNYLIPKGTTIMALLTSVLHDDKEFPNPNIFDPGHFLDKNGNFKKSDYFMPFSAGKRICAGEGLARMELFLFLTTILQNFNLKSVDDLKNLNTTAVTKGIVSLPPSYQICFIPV
As to the kind of experiment: CBC metabolism by CYP2C8. The format is in vitro ADME. To be noted: CYP2C8, from Vmax. The protocol:
as §1, §2

Series [3] has as its target T3, CYP3A4 with CPR (Homo sapiens, UniProt P08684).
T3 construct: His-tag; made in house; host or cells: E. coli DH-5α with pTGro7 plasmid (CYP)
Kind of series: NADPH activity assay, CYP3A4 with CPR. It is filed as biochemical. The following applies: CYP3A4, CBC 50 μM vs substrate-free. The protocol:
CYP-mediated NADPH oxidation was measured using kinetics mode in a Cary 300 UV–vis spectrometer (Agilent Technologies). 0.2 μM (final concentration) of CYP was taken in 0.1 M potassium phosphate buffer (pH 7.4) and incubated with 0.6 μM (final concentration) of CPR for 5 min with a reaction volume of 400 μL. The reaction was initiated with 200 μM of NADPH, and the absorption change was monitored over 10 min at 340 nm. The rate of NADPH consumption (or NADPH to NADP^+ conversion) was calculated by taking the molar extinction coefficient as 6.22 mM^–1 cm^–1 at 340 nm. To estimate the change in NADPH oxidation in the presence of CBC, both CYP and CPR were further incubated using CBC (final concentration 50 μM) for 5 min followed by measuring the change in absorbance at 340 nm as discussed earlier.

The target of series [4] is T4, CYP2D6 in the presence of CPR (Homo sapiens, UniProt P10635).
T4 construct: His-tag; made in house; host or cells: E. coli DH-5α with pTGro7 plasmid (CYP)
T4 sequence (P10635 whole entry): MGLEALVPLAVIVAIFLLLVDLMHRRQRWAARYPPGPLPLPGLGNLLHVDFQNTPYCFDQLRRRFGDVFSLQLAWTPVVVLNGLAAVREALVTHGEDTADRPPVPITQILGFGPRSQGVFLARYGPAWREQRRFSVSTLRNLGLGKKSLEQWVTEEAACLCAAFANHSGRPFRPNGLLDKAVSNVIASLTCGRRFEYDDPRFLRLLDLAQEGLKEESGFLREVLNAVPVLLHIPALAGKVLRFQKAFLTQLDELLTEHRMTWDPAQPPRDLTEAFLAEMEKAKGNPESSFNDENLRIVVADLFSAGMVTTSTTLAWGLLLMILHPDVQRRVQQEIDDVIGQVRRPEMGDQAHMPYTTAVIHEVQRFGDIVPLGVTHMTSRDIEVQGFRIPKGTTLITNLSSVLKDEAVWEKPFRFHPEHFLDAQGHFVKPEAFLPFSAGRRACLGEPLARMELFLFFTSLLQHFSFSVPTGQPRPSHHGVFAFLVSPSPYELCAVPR
T4 sequence (P16435 whole entry partner): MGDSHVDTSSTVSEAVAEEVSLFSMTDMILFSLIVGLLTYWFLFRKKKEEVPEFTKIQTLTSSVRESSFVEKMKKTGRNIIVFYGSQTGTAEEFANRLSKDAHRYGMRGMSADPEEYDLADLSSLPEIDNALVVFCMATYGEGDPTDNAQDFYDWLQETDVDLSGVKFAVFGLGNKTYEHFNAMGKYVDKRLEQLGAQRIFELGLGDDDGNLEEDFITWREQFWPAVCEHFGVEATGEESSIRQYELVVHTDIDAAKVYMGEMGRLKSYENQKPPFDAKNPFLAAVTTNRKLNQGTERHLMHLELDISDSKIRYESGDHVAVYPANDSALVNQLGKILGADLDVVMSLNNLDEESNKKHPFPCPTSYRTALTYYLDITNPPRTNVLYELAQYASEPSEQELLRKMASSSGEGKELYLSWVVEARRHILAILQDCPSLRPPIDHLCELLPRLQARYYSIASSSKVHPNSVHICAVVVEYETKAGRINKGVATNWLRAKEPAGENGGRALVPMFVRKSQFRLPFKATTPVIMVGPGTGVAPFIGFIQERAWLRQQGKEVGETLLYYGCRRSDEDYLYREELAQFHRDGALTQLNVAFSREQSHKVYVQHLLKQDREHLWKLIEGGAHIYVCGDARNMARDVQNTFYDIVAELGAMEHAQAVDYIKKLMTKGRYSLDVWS
Kind of series: Spectroscopic titration, CYP2D6–CPR complex. The format is binding. The protocol:
For CBC titration to CYP–CPR complex, initially CYPs were dissolved in 400 μL of 0.1 M phosphate buffer (pH = 7.4) keeping the concentration between […]. Following this 50 μL of CPR (50 μM stock) was added to both cuvettes, and the final concentration of both of the proteins was 5–6 μM. Both proteins were initially mixed and incubated for 5 min followed by titration with CBC in the same process as mentioned above. The substrate-bound spectra were then subtracted from substrate-free spectra, and the extent of binding was analyzed using Origin Pro 2020.

pKd: −log10 of the molar value. Where “and” joins values, the source holds several entries; their conditions need not be identical. Identical values can stand only once.

T3 sequence (P08684 whole entry): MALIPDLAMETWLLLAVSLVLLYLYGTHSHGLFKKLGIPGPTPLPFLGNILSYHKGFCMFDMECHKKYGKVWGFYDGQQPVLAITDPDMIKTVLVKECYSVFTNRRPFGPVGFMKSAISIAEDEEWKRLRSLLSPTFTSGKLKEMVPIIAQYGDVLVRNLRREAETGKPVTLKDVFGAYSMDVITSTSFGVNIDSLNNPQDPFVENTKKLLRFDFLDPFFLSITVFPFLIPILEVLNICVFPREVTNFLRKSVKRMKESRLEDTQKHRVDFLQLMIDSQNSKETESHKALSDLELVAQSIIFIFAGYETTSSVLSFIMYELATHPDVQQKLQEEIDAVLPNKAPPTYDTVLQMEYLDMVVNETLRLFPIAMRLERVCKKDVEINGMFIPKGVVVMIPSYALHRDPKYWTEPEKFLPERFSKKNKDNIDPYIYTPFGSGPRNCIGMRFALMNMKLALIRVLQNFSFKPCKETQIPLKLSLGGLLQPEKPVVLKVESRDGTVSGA
T3 sequence (P16435 whole entry partner): as the sequence (P16435 whole entry partner) above

For `CCCCCc1cc(O)c2c(c1)OC(C)(CC/C=C(\C)CO)C=C2` (stereo not drawn) [8′-hydroxy-CBC], the “ratio of 8′-hydroxy-CBC to 6′,7′-epoxy-CBC formed” value in series [1] (CYP2J2, from Vmax) is given as “approximately 50”; in series [2] it was “around 5”. In addition, the “production of 8′-hydroxy-CBC with CYP2J2 relative to CYP2C8” value in series [1] (CYP2J2 vs CYP2C8) was around 10 times.
As usually defined, the pKd is −log10 of the Kd, conventionally taken in molar units. Consider `CCCCCc1cc(O)c2c(c1)OC(C)(CCC=C(C)C)C=C2` (stereo not drawn) [CBC, Cannabichromene], for which the “percentage increase of NADPH consumption in the presence of CBC” value in series [3] was around 15%. For the same molecule, in series [4], the “ΔAmax (spin state change due to heme perturbation)” value was 0.04 ± 0.00 and 0.03–0.04. Besides, the pKd in series [4] (read-out: Kd(app)) was 5.51 and > 5.00 and ~5.52.

The values above are taken from PMC11061835, “Elucidating the Mechanism of Metabolism of Cannabichromene by Human Cytochrome P450s” (Journal of Natural Products, 2024).
